In patent US20250228848A1, “PROCESS FOR MAKING A KRAS G12C INHIBITOR” (ELI LILLY AND COMPANY, priority 2022, published 2025):
Like-named read-outs stand apart in the source and are kept apart here.

How the values were obtained:
KRas G12C = KRas G12C (Homo sapiens, UniProt P01116, G12C); experiment: KRas G12C Probe Occupancy TR-FRET Assay; assay type: binding; details: for IC50 concentrations relative to Examples 1, 3, 5, and 7 (the P atropisomer designations): comparison of M with P atropisomers, Table 3
Source text: The purpose of this assay is to measure the ability of an inhibitor to compete with a probe for binding to and covalently modifying KRas G12C at codon 12. The signal is generated by the time-resolved transfer of fluorescence between europium on an antibody bound to KRas G12C Europium-labeled Anti-Histidine Tag Antibody LanthaScreen (the Eu Anti-His antibody) and fluorescent Tracer 647 (Alexa Fluor™) bound to KRas G12C through streptavidin and a biotinylated inhibitor (the “KRas Probe”, see Preparation 223).
Inhibitors are tested in dose response format from 10 mM stocks in 100% DMSO. The Labycyte Echo® 555 is used to dilute and transfer 100 nL per well containing a 10 point, 2.8-fold serial dilution to an assay plate. Two copies of the assay plate are prepared to measure the potency after 5 and 60 minutes incubation of the inhibitor with KRas G12C. His-tagged KRas G12C (20 nM) is added to the plates in assay buffer (20 mM Tris-HCl, pH 7.5, 0.01% TX-100, and 1 mM DTT). After 5 or 60 minutes incubation, 1 μM KRas Probe is added and allowed to covalently modify free KRas G12C for 1 hour. This is diluted 4-fold in buffer containing Eu Anti-His antibody and Streptavidin-Coated Tracer 647 (both from Life Technologies) to achieve KRas G12C (5 nM), Anti-His Antibody (2 nM), KRas Probe ([…]), and Streptavidin Coated Tracer 647 (500 nM). After 30 minutes, the fluorescent signal is read on an Envision™ Plate Reader (excitation at 340 nm, tracer emission (em) at […], and antibody emission at 615 nm). Maximum control wells lack inhibitor and minimum control wells lack both inhibitor and KRas G12C. The signal ratio (em at 665/em at 615) is converted to percent inhibition using the following equation: % Inhibition=100−[(Test Compound Signal−Median Minimum Signal)/(Median Maximum Signal−Median Minimum Signal)×100]. The IC50 is determined by fitting the percent inhibition at each inhibitor concentration to the four parameter nonlinear logistic equation using Genedata Screener®: y=(A+((B−A)/(1+((C/x)∧D)))) where, y=% inhibition, A=minimum asymptote, B=maximum asymptote, C=relative IC50 or the inhibitor concentration producing 50% inhibition within the fitted range of both asymptotes, and D=Hill Slope. Compounds within the scope of this disclosure are evaluated in this assay substantially as described above.

[1] = system: constitutive RAS GTPase activity in human lung cancer cells H358; experiment: H358 Cellular Active RAS GTPase ELISA; assay type: cell-based; details: serum free media, incubated for 2 hours with compound
Experimental: Activated RAS (GTP-bound) in cell extracts specifically bind to the Raf-RBD. Bound RAS is detected with a primary antibody that recognizes human KRas. A secondary antibody conjugated with HRP recognizes the primary antibody and a development solution provides a chemiluminescent readout.
The next morning, 10 μL of serially-diluted (3-fold) test compounds (500 μM top concentration) and 10 μL of controls (Maximum signal wells: 5% DMSO and Minimum signal wells: 500 μM 1-[4-[6-chloro-8-fluoro-7-(3-hydroxy-1-naphthyl)quinazolin-4-yl]piperazin-1-yl]prop-2-en-1-one, WO2015054572 as an inhibitor) are added to the cell plate and incubated for 2 hours at 37° C./5% CO2. Complete Lysis/Binding Buffer is prepared containing Protease Inhibitor cocktail and GST-Raf-RBD and stored on ice. One hour before cell plate incubation is completed, 50 μL of GST-Raf-RBD is diluted in lysis/binding buffer, and buffer is added to the ELISA assay plate and which is incubated for 1 hour at 4° C. with gently rocking. After 2 hours, the cells are washed with 100 μL ice-cold PBS and lysed with 100 μL lysis/binding buffer. The cell plate is shaken for 10 minutes at ambient temperature. The cell plate is then centrifuged at 1500 rpm for 10 minutes at ambient temperature. During this time, 1×Wash Buffer is prepared at ambient temperature and then is used to wash (3×100 μL) the GST-Raf-RBD coated assay plate. After washing, 50 μL of cell lysate is added to the GST-Raf-RBD coated assay plate and incubated for 1 hour at ambient temperature with gentle shaking. During this incubation period, 1×Antibody Binding Buffer is prepared and brought to ambient temperature. The assay plate is washed 3×100 μL with 1×Wash Buffer and then 50 μL of Primary Antibody (diluted 1:500 in 1×Antibody Binding buffer) is added. The plate is incubated for 1 hour at ambient temperature. The assay plate is washed 3×100 μL with 1×Wash Buffer and then 50 μL of Secondary Antibody (diluted 1:5000 in 1×Antibody Binding buffer) is added and incubated for 1 hour at ambient temperature. The assay plate is washed 4×100 μL with 1×Wash buffer and then 50 μL of chemiluminescent working solution is added at ambient temperature. The assay plate is then read on an EnVision™ Plate Reader (Perkin Elmer) using a luminescence program.
The signal is converted to percent inhibition using the following equation: % Inhibition=100−[(Test Compound Signal−Median Minimum Signal)/(Median Maximum Signal−Median Minimum Signal)×100]. The Maximum signal is a control well without inhibitor.
(§1) Compounds within the scope of this disclosure are evaluated in this assay substantially as described above.

[2] = system: phosphorylation of p-ERK1/2 in human lung cancer cells H358; experiment: H358 Cellular Phospho-ERK AlphaLISA; assay type: cell-based; details: incubated for 2 hours with compound, p-ERK 1/2 (Thr202/Tyr204)
Experimental: Briefly, the AlphaLISA® SureFire® Ultra™ p-ERK 1/2 (Thr202/Tyr204) assay is a sandwich immunoassay for quantitative detection of phospho-ERK 1/2 (phosphorylated on Thr202/Tyr204 in ERK1, or Thr185/Tyr187 in ERK2) in cellular lysates using Alpha Technology (Perkin Elmer Cat #ALSU-PERK-A50K).
The next morning, 10 μL of serially-diluted (3-fold) test compounds (50 μM top concentration) and 10 μL of controls (Maximum signal wells: 5% DMSO and Minimum signal wells: 2 μM of N-(3-{3-cyclopropyl-5-[(2-fluoro-4-iodophenyl)amino]-6,8-dimethyl-2,4,7-trioxo-3,4,6,7-tetrahydropyrido[4,3-D]pyrimidin-1(2H)-yl}phenyl)acetamide (trametinib, as a positive control) are added to the cell plate and incubated for 2 hours in humid trays at 37° C./5% CO2. Lysis Buffer is prepared at ambient temperature containing a protease and phosphatase inhibitor cocktail. Culture medium is removed by inverting and shaking the cell plate in the sink and then blotting onto a paper towel. Lysis buffer is added to the cell plate (50 μL per well) and the plate is incubated at ambient temperature for 10 minutes on a shaker. For p-ERK detection, acceptor beads are diluted into a suspension mixture with buffer. Using a STARlet liquid handler, 5 μL of acceptor beads and 2 μL of cell lysate are transferred as a single-step in-tip dilution to a 384 well assay plate. The assay plate is sealed with foil and is incubated at ambient temperature for 2 hours. Donor beads are diluted into a suspension mixture with buffer. Using the STARlet, 5 μL of donor beads are added to the assay plate that is then sealed, wrapped with foil. The plate is incubated at ambient temperature for 2 hours in the dark. The assay plate is then read on an EnVision™ Plate Reader (Perkin Elmer) using a luminescence program.
The signal is converted to percent inhibition using the following equation: % Inhibition=100−[(Test Compound Signal−Median Minimum Signal)/(Median Maximum Signal−Median Min Signal)×100]. The Maximum signal is a control well without inhibitor.
as §1

[3] = 5 minutes incubation of the inhibitor with His-tagged KRas G12C before KRas Probe, read-out: IC50 (nM) @ 5 min
[4] = 60 minutes incubation of the inhibitor with His-tagged KRas G12C before KRas Probe, read-out: IC50 (nM) @ 60 min

Chain of KRas G12C (P01116 1-188 isoform P01116-2 G12C): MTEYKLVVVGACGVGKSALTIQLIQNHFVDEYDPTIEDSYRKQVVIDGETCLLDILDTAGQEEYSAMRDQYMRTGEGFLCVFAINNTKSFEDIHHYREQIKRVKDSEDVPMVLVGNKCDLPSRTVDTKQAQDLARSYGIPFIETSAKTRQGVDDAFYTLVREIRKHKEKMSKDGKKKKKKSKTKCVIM

In the case of C=CC(=O)N1CCN2C(=O)c3cc(Cl)c(-c4ccc(F)c5sc(N)nc45)c(Cl)c3OCC[C@H]2C1 (single isomer, unassigned) [Example 2], the IC50 (KRas G12C; [3]) is reported as less than 15 nM, the IC50 (KRas G12C; [4]) is reported as less than 15 nM and the “IC50 concentrations relative to Examples 1, 3, 5, and 7 (the P atropisomer designations)” value (KRas G12C) is reported as “superior IC50 concentrations”. It also gave an IC50 ([1]; read-out: IC50) of 6.71 nM.

With C=CC(=O)N1CCN2C(=O)c3cc(F)c(-c4ccc(F)c5sc(N)c(C#N)c45)c(Cl)c3OC[C@H]2C1 (single isomer, unassigned) [Example 8] the IC50 (KRas G12C; [3]) was less than 15 nM, the IC50 (KRas G12C; [4]) was less than 15 nM and the “IC50 concentrations relative to Examples 1, 3, 5, and 7 (the P atropisomer designations)” value (KRas G12C) was “superior IC50 concentrations”. The IC50 [2] was 0.902 nM and the IC50 ([1]; read-out: IC50) was 4.62 nM.

For C=CC(=O)N1CCN2C(=O)c3cc(F)c(-c4ccc(F)c5sc(N)c(C#N)c45)c(Cl)c3OCC[C@H]2C1 (single isomer, unassigned) [Example 6], the IC50 (KRas G12C; [3]) was less than 15 nM, the IC50 (KRas G12C; [4]) was less than 15 nM and the “IC50 concentrations relative to Examples 1, 3, 5, and 7 (the P atropisomer designations)” value (KRas G12C) was “superior IC50 concentrations”. The IC50 [2] was 0.649 nM and the IC50 [1] was 3.31 nM.

Compound C=CC(=O)N1CCN2C(=O)c3cc(Cl)c(-c4ccc(F)c5sc(N)nc45)c(Cl)c3OCC[C@H]2C1 (single isomer, unassigned) [Example 1] has an IC50 (KRas G12C; [3]) of 18600 nM, an IC50 (KRas G12C; [4]) of 16000 nM and an IC50 [2] of 2460 nM. The IC50 ([1]; read-out: IC50) was 14400 nM.

With C=CC(=O)N1CCN2C(=O)c3cc(F)c(-c4cccc5sc(N)c(C#N)c45)c(Cl)c3OCC[C@H]2C1 (single isomer, unassigned) [Example 4] the IC50 (KRas G12C; [3]) was less than 15 nM, the IC50 (KRas G12C; [4]) was less than 15 nM and the “IC50 concentrations relative to Examples 1, 3, 5, and 7 (the P atropisomer designations)” value (KRas G12C) was “superior IC50 concentrations”. For the same compound, the IC50 [2] was 1.31 nM and the IC50 ([1]; read-out: IC50) was 5.66 nM.

C=CC(=O)N1CCN2C(=O)c3cc(F)c(-c4cccc5sc(N)c(C#N)c45)c(Cl)c3OCC[C@H]2C1 (single isomer, unassigned) [Example 3] gave an IC50 (KRas G12C; [3]) of 451 nM, an IC50 (KRas G12C; [4]) of 843 nM and an IC50 [2] of 206 nM. It also gave an IC50 ([1]; read-out: IC50) of 902 nM.

For C=CC(=O)N1CCN2C(=O)c3cc(F)c(-c4ccc(F)c5sc(N)c(C#N)c45)c(Cl)c3OC[C@H]2C1 (single isomer, unassigned) [Example 7], the IC50 (KRas G12C; [3]) was 26900 nM, the IC50 (KRas G12C; [4]) was 17900 nM and the IC50 [2] was 2980 nM. It also gave an IC50 ([1]; read-out: IC50) of 23800 nM.

Work on C=CC(=O)N1CCN2C(=O)c3cc(F)c(-c4ccc(F)c5sc(N)c(C#N)c45)c(Cl)c3OCC[C@H]2C1 (single isomer, unassigned) [Example 5] yielded an IC50 (KRas G12C; [3]) of 3270 nM, an IC50 (KRas G12C; [4]) of 3250 nM and an IC50 [2] of 330 nM. It also gave an IC50 [1] of 1770 nM.
